According to US11459306B2, “Compounds, compositions, and methods for treating T-cell acute lymphoblastic leukemia” (The Trustees of Columbia University in the City of New York, priority 2017, dated 2022):

Tests used:
PIK3CA (PI3Kα) = target: T1, PIK3CA (PI3Kα) (Homo sapiens, UniProt P42336); test: KINOMEscan competition binding assay (DiscoverX); conditions: DiscoveRx gene symbol PIK3CA (PI3Kα)
T1 construct: purchased DiscoverX (KINOMEscan); host or cells: E. coli BL21-derived host (T7 phage) or HEK-293
Description: (§1) The compounds were tested using KINOMEscan™ (DiscoverX), which is based on a competition binding assay that quantitatively measures the ability of a compound to compete with an immobilized, active-site directed ligand. The assay is performed by combining three components: DNA-tagged kinase; immobilized ligand; and a test compound. The ability of the test compound to compete with the immobilized ligand is measured via quantitative PCR of the DNA tag.
(§2) For most assays, kinase-tagged T7 phage strains were prepared in an E. coli host derived from the BL21 strain. E. coli were grown to log-phase and infected with T7 phage and incubated with shaking at 32° C. until lysis. The lysates were centrifuged and filtered to remove cell debris. The remaining kinases were produced in HEK-293 cells and subsequently tagged with DNA for qPCR detection. Streptavidin-coated magnetic beads were treated with biotinylated small molecule ligands for 30 minutes at room temperature to generate affinity resins for kinase assays. The liganded beads were blocked with excess biotin and washed with blocking buffer (SeaBlock (Pierce), 1% BSA, 0.05% Tween 20, 1 mM DTT) to remove unbound ligand and to reduce non-specific binding. Binding reactions were assembled by combining kinases, liganded affinity beads, and test compounds in 1× binding buffer (20% SeaBlock, 0.17×PBS, 0.05% Tween 20, 6 mM DTT). Test compounds were prepared as 111× stocks in 100% DMSO. Kds were determined using an 11-point 3-fold compound dilution series with three DMSO control points. All compounds for Kd measurements are distributed by acoustic transfer (non-contact dispensing) in 100% DMSO. The compounds were then diluted directly into the assays such that the final concentration of DMSO was 0.9%. All reactions performed in polypropylene 384-well plate. Each was a final volume of 0.02 ml. The assay plates were incubated at room temperature with shaking for 1 hour and the affinity beads were washed with wash buffer (1×PBS, 0.05% Tween 20). The beads were then re-suspended in elution buffer (1×PBS, 0.05% Tween 20, 0.5 μM non-biotinylated affinity ligand) and incubated at room temperature with shaking for 30 minutes. The kinase concentration in the eluates was measured by qPCR.
(§3) An 11-point 3-fold serial dilution of each test compound was prepared in 100% DMSO at 100× final test concentration and subsequently diluted to 1× in the assay (final DMSO concentration=1%). Most Kds were determined using a compound top concentration=30,000 nM. If the initial Kd determined was <0.5 nM (the lowest concentration tested), the measurement was repeated with a serial dilution starting at a lower top concentration.
(§4) Binding constants (Kds) were calculated with a standard dose-response curve using the Hill equation: […]
(§5) The Hill Slope was set to −1. Curves were fitted using a non-linear least square fit with the Levenberg-Marquardt algorithm.

PIK3CG = target: T2, PIK3CG (Homo sapiens, UniProt P48736); test: KINOMEscan competition binding assay (DiscoverX); conditions: DiscoveRx gene symbol PIK3CG (b251 prints: PI3Kδ)
T2 construct: purchased DiscoverX (KINOMEscan); host or cells: E. coli BL21-derived host (T7 phage) or HEK-293
Description: as §1, §2, §3, §4, §5

PIK3CB (PI3Kβ) = target: T3, PIK3CB (PI3Kβ) (Homo sapiens, UniProt P42338); test: KINOMEscan competition binding assay (DiscoverX); conditions: DiscoveRx gene symbol PIK3CB (PI3Kβ)
T3 construct: purchased DiscoverX (KINOMEscan); host or cells: E. coli BL21-derived host (T7 phage) or HEK-293
Description: as §1, §2, §3, §4, §5

PIK3CD = target: T4, PIK3CD (Homo sapiens, UniProt O00329); test: KINOMEscan competition binding assay (DiscoverX); conditions: DiscoveRx gene symbol PIK3CD (b251 prints: PI3Kγ)
T4 construct: purchased DiscoverX (KINOMEscan); host or cells: E. coli BL21-derived host (T7 phage) or HEK-293
T4 sequence (O00329 1-1044): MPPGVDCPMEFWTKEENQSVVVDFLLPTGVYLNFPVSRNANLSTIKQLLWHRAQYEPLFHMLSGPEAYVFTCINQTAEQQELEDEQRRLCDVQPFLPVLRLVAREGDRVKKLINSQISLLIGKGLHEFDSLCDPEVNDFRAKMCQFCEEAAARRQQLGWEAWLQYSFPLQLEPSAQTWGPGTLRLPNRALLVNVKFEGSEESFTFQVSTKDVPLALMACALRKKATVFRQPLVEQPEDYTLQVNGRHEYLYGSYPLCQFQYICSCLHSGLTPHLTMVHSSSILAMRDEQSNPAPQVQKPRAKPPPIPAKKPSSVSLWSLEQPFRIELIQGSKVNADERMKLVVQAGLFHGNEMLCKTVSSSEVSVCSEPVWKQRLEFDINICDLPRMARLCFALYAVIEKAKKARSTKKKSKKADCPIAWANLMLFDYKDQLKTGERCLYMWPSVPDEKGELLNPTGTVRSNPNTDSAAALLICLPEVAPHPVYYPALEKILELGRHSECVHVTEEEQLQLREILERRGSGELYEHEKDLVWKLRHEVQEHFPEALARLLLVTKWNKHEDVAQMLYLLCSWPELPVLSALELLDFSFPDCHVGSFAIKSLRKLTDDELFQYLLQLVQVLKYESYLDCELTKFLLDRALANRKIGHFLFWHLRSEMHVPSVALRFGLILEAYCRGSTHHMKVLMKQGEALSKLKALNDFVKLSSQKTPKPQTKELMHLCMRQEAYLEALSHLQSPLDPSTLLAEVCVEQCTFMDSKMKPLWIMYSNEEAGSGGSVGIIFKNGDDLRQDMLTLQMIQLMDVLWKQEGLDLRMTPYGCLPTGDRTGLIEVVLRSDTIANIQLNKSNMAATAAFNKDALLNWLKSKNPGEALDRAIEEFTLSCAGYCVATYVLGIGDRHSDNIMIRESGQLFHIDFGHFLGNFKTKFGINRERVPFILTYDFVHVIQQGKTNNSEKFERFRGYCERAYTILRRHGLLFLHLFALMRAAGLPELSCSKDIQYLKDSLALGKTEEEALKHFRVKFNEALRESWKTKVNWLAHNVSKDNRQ
Description: as §1, §2, §3, §4, §5

T-ALL = test: Mice with genetically induced T-ALL expressing luciferase treated with DWL-PI3K-3; type: in vivo; conditions: 10 mg/kg every 12 h for 7 days; luciferin signal and Ki67/thy1.2 positive population
[1] = Pharmacokinetics relative to CAL-130; type: in vivo
T-ALL cell line = test: T-ALL cell viability / cell death; type: cell-based, murine
Description: Compounds DWL-PI3K-1, DWL-PI3K-2, DWL-PI3K-3, DWL-PI3K-4, DWL-PI3K-5, DWL-PI3K-6 and DWL-PI3K-7, and reference compounds CAL-130, tenalisib, duvelisib were evaluated for efficacy (cell viability by measuring ATP (CellTiter-Glo) or propidium iodide (PI) uptake) against a number of cancer cells, including LMO-2-007, OCI-LY-10, HH, H9, PF382 and CCRF-CEM.

T2 sequence (P48736 whole entry): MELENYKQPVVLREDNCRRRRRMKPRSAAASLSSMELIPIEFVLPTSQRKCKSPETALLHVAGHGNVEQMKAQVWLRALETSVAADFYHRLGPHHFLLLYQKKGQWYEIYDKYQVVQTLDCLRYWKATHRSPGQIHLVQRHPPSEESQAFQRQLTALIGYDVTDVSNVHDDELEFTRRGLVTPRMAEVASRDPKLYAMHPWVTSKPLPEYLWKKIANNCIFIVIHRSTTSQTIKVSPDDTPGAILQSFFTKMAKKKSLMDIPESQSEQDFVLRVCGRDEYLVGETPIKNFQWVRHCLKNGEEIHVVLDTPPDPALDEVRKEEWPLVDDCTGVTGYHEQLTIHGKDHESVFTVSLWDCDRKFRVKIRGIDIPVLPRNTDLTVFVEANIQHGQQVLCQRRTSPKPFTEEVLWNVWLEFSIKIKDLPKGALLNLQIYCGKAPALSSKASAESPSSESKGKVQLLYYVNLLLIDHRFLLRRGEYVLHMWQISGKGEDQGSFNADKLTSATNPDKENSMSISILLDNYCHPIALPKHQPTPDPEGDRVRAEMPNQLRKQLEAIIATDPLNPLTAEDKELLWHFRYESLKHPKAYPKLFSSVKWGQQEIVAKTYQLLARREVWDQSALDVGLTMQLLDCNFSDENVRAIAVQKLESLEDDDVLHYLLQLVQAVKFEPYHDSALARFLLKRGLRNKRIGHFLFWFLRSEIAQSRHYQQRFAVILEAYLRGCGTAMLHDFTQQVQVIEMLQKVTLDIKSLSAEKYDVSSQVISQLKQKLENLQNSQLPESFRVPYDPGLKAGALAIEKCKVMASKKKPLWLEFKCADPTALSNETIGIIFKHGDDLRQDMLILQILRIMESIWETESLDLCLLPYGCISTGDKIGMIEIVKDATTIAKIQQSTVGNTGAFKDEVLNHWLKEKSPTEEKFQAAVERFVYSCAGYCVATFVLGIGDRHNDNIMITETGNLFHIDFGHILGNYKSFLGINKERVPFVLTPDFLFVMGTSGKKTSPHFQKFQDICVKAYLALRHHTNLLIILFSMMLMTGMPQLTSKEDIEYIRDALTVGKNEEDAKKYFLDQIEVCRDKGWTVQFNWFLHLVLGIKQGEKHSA
T3 sequence (P42338 whole entry): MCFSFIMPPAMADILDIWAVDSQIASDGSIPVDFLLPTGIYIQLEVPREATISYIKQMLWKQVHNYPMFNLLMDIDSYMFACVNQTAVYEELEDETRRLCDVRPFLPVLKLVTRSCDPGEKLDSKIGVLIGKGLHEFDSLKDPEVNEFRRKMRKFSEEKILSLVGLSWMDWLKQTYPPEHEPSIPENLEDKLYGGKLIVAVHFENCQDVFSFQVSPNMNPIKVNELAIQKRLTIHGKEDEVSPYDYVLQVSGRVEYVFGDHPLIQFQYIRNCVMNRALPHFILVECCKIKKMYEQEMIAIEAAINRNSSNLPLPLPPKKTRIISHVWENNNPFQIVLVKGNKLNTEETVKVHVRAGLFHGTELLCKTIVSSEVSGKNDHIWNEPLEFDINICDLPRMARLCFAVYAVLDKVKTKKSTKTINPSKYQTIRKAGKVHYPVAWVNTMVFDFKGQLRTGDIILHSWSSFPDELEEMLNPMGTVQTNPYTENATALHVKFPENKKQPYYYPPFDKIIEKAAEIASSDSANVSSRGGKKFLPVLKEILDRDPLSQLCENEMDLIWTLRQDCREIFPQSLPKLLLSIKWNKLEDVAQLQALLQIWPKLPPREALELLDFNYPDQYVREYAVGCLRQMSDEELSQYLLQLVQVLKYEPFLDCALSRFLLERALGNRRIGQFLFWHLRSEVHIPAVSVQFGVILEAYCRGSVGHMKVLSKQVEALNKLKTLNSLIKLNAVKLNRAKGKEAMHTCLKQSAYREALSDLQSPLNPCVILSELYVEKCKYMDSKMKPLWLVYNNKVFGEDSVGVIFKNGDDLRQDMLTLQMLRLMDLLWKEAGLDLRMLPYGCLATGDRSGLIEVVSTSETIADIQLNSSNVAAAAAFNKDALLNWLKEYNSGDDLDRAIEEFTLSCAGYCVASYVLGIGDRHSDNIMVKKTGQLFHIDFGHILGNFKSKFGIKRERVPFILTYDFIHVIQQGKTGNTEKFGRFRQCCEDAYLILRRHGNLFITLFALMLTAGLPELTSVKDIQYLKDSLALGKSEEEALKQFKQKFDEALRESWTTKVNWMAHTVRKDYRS
T1 sequence (P42336 whole entry): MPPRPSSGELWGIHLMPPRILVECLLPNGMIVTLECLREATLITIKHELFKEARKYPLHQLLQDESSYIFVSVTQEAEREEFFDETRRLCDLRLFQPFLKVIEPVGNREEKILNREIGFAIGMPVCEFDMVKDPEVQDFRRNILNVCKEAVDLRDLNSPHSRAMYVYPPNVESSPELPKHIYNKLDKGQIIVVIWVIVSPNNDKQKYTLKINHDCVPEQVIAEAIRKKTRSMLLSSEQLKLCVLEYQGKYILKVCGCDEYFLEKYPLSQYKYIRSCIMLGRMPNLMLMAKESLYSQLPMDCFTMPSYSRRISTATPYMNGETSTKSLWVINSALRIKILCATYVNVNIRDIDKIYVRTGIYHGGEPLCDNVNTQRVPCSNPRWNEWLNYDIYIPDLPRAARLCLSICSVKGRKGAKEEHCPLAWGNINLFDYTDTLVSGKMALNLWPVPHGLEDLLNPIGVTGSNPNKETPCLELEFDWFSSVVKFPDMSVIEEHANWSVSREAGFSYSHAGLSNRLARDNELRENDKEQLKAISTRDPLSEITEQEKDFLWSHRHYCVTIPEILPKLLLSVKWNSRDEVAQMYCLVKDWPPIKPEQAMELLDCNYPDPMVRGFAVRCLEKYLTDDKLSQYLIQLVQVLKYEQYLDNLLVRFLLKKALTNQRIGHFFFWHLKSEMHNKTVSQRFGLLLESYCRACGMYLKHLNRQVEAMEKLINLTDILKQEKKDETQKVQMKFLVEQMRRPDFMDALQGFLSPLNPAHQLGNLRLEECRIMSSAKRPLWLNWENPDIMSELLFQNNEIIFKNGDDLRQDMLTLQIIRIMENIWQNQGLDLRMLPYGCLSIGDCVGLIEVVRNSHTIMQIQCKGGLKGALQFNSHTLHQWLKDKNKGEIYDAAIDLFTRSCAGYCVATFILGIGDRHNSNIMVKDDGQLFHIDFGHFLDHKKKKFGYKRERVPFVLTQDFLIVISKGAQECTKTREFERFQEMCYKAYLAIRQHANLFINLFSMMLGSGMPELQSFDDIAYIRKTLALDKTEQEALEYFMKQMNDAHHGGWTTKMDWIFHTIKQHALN

Compound: C[C@H](Nc1nc(N)nc(N)c1C#N)c1cc2cccc(Cl)c2c(=O)n1-c1ccccc1 [DWL-PI3K-3, (S)-2,4-diamino-6-((1-(8-chloro-1-oxo-2-phenyl-1,2-dihydroisoquinolin-3-yl)ethyl)amino)pyrimidine-5-carbonitrile]
- Kd (PIK3CA (PI3Kα)): 4 nM
- Kd (PIK3CG): 0.12 nM
- Kd (PIK3CB (PI3Kβ)): 0.084 nM
- Kd (PIK3CD): 0.14 nM
- tumor burden (T-ALL): significant reduction in tumor burden
- pharmacokinetics [1]: better pharmacokinetics
- efficacy in inducing T-ALL cell death relative to CAL-130 (T-ALL cell line; cultured T-ALL cells): greater efficacy than CAL-130
- amount needed relative to CAL-130 to achieve a similar reduction in tumor cell survival (T-ALL cell line; relative to CAL-130): about 10 fold less
